For data set [1] the following is noted: human.
Data set [2] in a line: Highest frequency of moderate liver toxicity observed during clinical trials, expressed as a percentage. [column '% BIOL' in source]. The settings on record: human.
The nature of data set [3]: Proposed mechanism(s) of liver damage. [column 'MEC' in source]. Particulars: human.
For data set [4] the following is noted: human. This is another data set of the same source.
For data set [5] the following is noted: human. The source holds these as a separate data set.
For data set [6] the following is noted: human, serum.
The conditions of data set [7]: human. This is another data set of the same source.
For data set [8] the following is noted: human, serum, 4383 h.
The conditions of data set [9]: human. The source holds these as a separate data set.
Data set [10] can be described thus: Presence of at least one case with successful reintroduction. [column 'REINT' in source]. Particulars: human.
The conditions of data set [11]: human. This is another data set of the same source.
For data set [12] the following is noted: human, serum. This is another data set of the same source.
A short description of data set [13]: Comments (NB not yet translated). [column 'COMMENTAIRES' in source]. The settings on record: human.
The conditions of data set [14]: human. The source holds these as a separate data set.
A short description of data set [15]: Times to onset, minimal and maximal, observed in the indexed observations. [column 'DELAI' in source]. Particulars: human.
A short description of data set [16]: Highest frequency of acute liver toxicity observed during clinical trials, expressed as a percentage. [column '% AIGUE' in source]. Particulars: human.
The conditions of data set [17]: human. The source holds these as a separate data set.
For data set [18] the following is noted: human. The source holds these as a separate data set.
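Throughout, for Hepatotoxicity (association with vascular disease): count of indexed literature references reporting vascular liver injury in humans, e.g. peliosis hepatitis, hepatic veno-occlusive disease or Budd-Chiari syndrome.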
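Throughout, for Hepatotoxicity (benign tumour): value is a count of indexed literature references citing a benign tumour confirmed by histopathology.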
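Throughout, for Hepatotoxicity (choleostasis): human cholestatic liver injury, shown by histopathology or by peak ALT or AST elevation over alkaline phosphatase ratio below 2, value counts indexed literature reports.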
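Throughout, for Hepatotoxicity (chronic liver disease): chronic liver injury confirmed by histopathology or persistently raised serum aminotransferase activity beyond 6 months, value given as the count of indexed literature references.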
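Throughout, for Hepatotoxicity (cirrhosis): value is a count of indexed literature references reporting cirrhosis confirmed by histopathology.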
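Throughout, for Hepatotoxicity (cytolytic): human cytolytic liver injury, shown by histopathology or by a ratio above 5 of peak ALT or AST elevation to alkaline phosphatase elevation, value counts indexed references.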
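Throughout, for Hepatotoxicity (granulomatous hepatitis): value is a count of indexed literature references reporting granulomatous liver disease confirmed by histopathology.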
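Throughout, for Hepatotoxicity (malignant tumour): malignant tumour confirmed by histopathology, value gives the count of indexed literature references reporting it.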
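Throughout, for Hepatotoxicity (severe hepatitis): human clinical data: severe hepatitis, meaning potentially life-threatening liver failure or clinically observed cases, the value counts how many indexed literature references report it.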
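Throughout, for Hepatotoxicity (steatosis): steatosis confirmed by histopathology, value is the count of indexed references.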

As for `CCOC(=O)[C@H](CCc1ccccc1)N[C@@H](C)C(=O)N1CCC[C@H]1C(=O)O`, the “Hepatotoxicity (cytolytic)” value in data set [1] was found to be 7. The entries for the “Hepatotoxicity (moderate)” value in data set [2] and in [12] were 2.8% and 9, respectively. Besides, in data set [3], the “Hepatotoxicity (mechanism)” value is given as “Allergic”. Also, the “Hepatotoxicity (association with vascular disease)” value in [4] worked out at 0. Further, the “Hepatotoxicity (malignant tumour)” value in data set [5] is 0. Also, the “Hepatotoxicity (acute)” value in data set [6] turned out to be 13; in data set [16], 0%. For the same compound, the “Hepatotoxicity (severe hepatitis)” value in data set [7] was found to be 3. The “Hepatotoxicity (chronic liver disease)” value in [8] was determined as 0. The “Hepatotoxicity (choleostasis)” value in data set [9] came out at 4. Also, in [10], the “Hepatotoxicity (successful reintroduction)” value was “yes”. Further, in data set [11], the “Hepatotoxicity (benign tumour)” value turned out to be 0. Further, the “Hepatotoxicity (comment)” value in data set [13] is reported as “DUCTOPENIE RC/CAPTOPRIL”. Moreover, in data set [14], the “Hepatotoxicity (granulomatous hepatitis)” value came out at 0. The “Hepatotoxicity (time to onset)” value in data set [15] was 10 days - 3 years. Moreover, the “Hepatotoxicity (steatosis)” value in [17] was 0. The “Hepatotoxicity (cirrhosis)” value in data set [18] came to 0.
In the case of `Nc1ccc(O)c(C(=O)O)c1` [MESALAMINE], the “Hepatotoxicity (cytolytic)” value in [1] is given as 5. Also, the entries for the “Hepatotoxicity (moderate)” value in data set [2] and in data set [12] were 21% and 14, respectively. Also, the “Hepatotoxicity (mechanism)” value in data set [3] is “Allergic”. Also, the “Hepatotoxicity (association with vascular disease)” value in data set [4] stood at 0. The “Hepatotoxicity (malignant tumour)” value in [5] is listed as 0. In addition, the “Hepatotoxicity (acute)” value in [6] is listed as 12; in [16], 1%. Also, in data set [7], the “Hepatotoxicity (severe hepatitis)” value was determined as 1. The “Hepatotoxicity (chronic liver disease)” value in [8] was found to be 1. In data set [9], the “Hepatotoxicity (choleostasis)” value came to 3. Also, the “Hepatotoxicity (successful reintroduction)” value in data set [10] is reported as “yes”. Further, in data set [11], the “Hepatotoxicity (benign tumour)” value came to 0. Also, the “Hepatotoxicity (comment)” value in data set [13] is “CHOLANGITE RC/SULFASALAZINE AC_ANTI-N/-ML”. The “Hepatotoxicity (granulomatous hepatitis)” value in data set [14] is 1. Also, the “Hepatotoxicity (time to onset)” value in data set [15] came to 1 day - 1 year. The “Hepatotoxicity (steatosis)” value in data set [17] stood at 0. Besides, the “Hepatotoxicity (cirrhosis)” value in data set [18] was 0.
For the compound `CC[C@H]1[C@@H]2C[C@H]3[C@@H]4N(C)c5ccccc5[C@]45C[C@@H]([C@@H]2[C@H]5O)N3[C@@H]1O` [AJMALINE], the “Hepatotoxicity (cytolytic)” value in [1] was determined as 6. For the same compound, the “Hepatotoxicity (moderate)” value in data set [2] worked out at 0%; in data set [12], 2. The “Hepatotoxicity (mechanism)” value in [3] is “Allergic”. Also, the “Hepatotoxicity (association with vascular disease)” value in data set [4] stood at 0. For the same compound, in [5], the “Hepatotoxicity (malignant tumour)” value was 0. Also, the “Hepatotoxicity (acute)” value in data set [6] is reported as 29; in data set [16] it was 0.1%. Besides, the “Hepatotoxicity (severe hepatitis)” value in [7] came to 0. In addition, the “Hepatotoxicity (chronic liver disease)” value in data set [8] came to 1. Further, the “Hepatotoxicity (choleostasis)” value in [9] is on record as 28. Moreover, the “Hepatotoxicity (successful reintroduction)” value in data set [10] is “yes”. In data set [11], the “Hepatotoxicity (benign tumour)” value is on record as 0. For the same compound, the “Hepatotoxicity (comment)” value in data set [13] is on record as “CHOLESTASE_PROLONGEE RC/AMIODARONE”. Also, the “Hepatotoxicity (granulomatous hepatitis)” value in data set [14] is listed as 0. Besides, the “Hepatotoxicity (time to onset)” value in data set [15] was 1 day - 4 years. Moreover, the “Hepatotoxicity (steatosis)” value in [17] is given as 0. In [18], the “Hepatotoxicity (cirrhosis)” value is reported as 1.
Take `O=C(OCC(O)CO)c1ccccc1Nc1ccnc2cc(Cl)ccc12` (stereo unspecified) [GLAFENINE]: in data set [1] (Liver), the “Hepatotoxicity (cytolytic)” value amounted to 12. Also, the “Hepatotoxicity (moderate)” value amounted to 0% in data set [2] (Liver) and 2 in [12]. Further, the “Hepatotoxicity (mechanism)” value in data set [3] (Liver) is “Allergic”. The “Hepatotoxicity (association with vascular disease)” value in data set [4] was found to be 0. Further, the “Hepatotoxicity (malignant tumour)” value in [5] is listed as 0. Also, the “Hepatotoxicity (acute)” value in [6] is recorded as 14; in data set [16] (Liver), 0%. Further, the “Hepatotoxicity (severe hepatitis)” value in data set [7] (Liver) is 7. The “Hepatotoxicity (chronic liver disease)” value in data set [8] stood at 5. In addition, the “Hepatotoxicity (choleostasis)” value in [9] (Liver) amounted to 2. In addition, the “Hepatotoxicity (successful reintroduction)” value in data set [10] is recorded as “yes”. In addition, in data set [11], the “Hepatotoxicity (benign tumour)” value came to 0. Also, the “Hepatotoxicity (comment)” value in [13] is recorded as “LITHIASE”. Moreover, the “Hepatotoxicity (granulomatous hepatitis)” value in data set [14] (Liver) is 0. Moreover, the “Hepatotoxicity (time to onset)” value in data set [15] was found to be 2 days - 8 months. In addition, the “Hepatotoxicity (steatosis)” value in [17] stood at 0. Also, in data set [18], the “Hepatotoxicity (cirrhosis)” value worked out at 5.
In the case of `CC1=C(CC(=O)O)c2cc(F)ccc2/C1=C\c1ccc([S+](C)[O-])cc1` (stereo unspecified), in [1], the “Hepatotoxicity (cytolytic)” value stood at 12. In addition, the figures for the “Hepatotoxicity (moderate)” value in data set [2] and in data set [12] were 14.9% and 25, respectively. Besides, the “Hepatotoxicity (mechanism)” value in data set [3] is “Allergic”. For the same compound, the “Hepatotoxicity (association with vascular disease)” value in data set [4] worked out at 0. The “Hepatotoxicity (malignant tumour)” value in [5] turned out to be 0. Further, the “Hepatotoxicity (acute)” value stood at 29 in data set [6] and 0.2% in [16]. Further, the “Hepatotoxicity (severe hepatitis)” value in data set [7] was determined as 3. In addition, in data set [8], the “Hepatotoxicity (chronic liver disease)” value was determined as 0. Moreover, the “Hepatotoxicity (choleostasis)” value in data set [9] amounted to 22. Also, the “Hepatotoxicity (successful reintroduction)” value in data set [10] is reported as “yes”. Besides, the “Hepatotoxicity (benign tumour)” value in data set [11] was 0. For the same compound, in [13], the “Hepatotoxicity (comment)” value was “LITHIASE CHOLESTASE_PROLONGEE CHOLANGITE”. Also, the “Hepatotoxicity (granulomatous hepatitis)” value in data set [14] was 0. Moreover, the “Hepatotoxicity (time to onset)” value in data set [15] is on record as 1 day - 1.5 years. Also, the “Hepatotoxicity (steatosis)” value in data set [17] is 4. The “Hepatotoxicity (cirrhosis)” value in data set [18] is recorded as 0.
For the compound `Cc1cn([C@H]2C=C[C@@H](CO)O2)c(=O)[nH]c1=O` [STAVUDINE], the “Hepatotoxicity (cytolytic)” value in data set [1] is recorded as 22. Moreover, the “Hepatotoxicity (moderate)” value is on record as 65.6% in data set [2] and 13 in data set [12]. In addition, the “Hepatotoxicity (mechanism)” value in data set [3] is recorded as “Dose-dependant, Mitochondrial toxicity, Toxic”. In addition, the “Hepatotoxicity (association with vascular disease)” value in data set [4] was 0. The “Hepatotoxicity (malignant tumour)” value in data set [5] stood at 0. The “Hepatotoxicity (acute)” value in data set [6] was determined as 29; in [16], 17.1%. The “Hepatotoxicity (severe hepatitis)” value in data set [7] amounted to 14. In addition, in data set [8], the “Hepatotoxicity (chronic liver disease)” value came out at 0. For the same compound, the “Hepatotoxicity (choleostasis)” value in data set [9] is reported as 5. In addition, the “Hepatotoxicity (successful reintroduction)” value in data set [10] is given as “yes”. Also, in data set [11], the “Hepatotoxicity (benign tumour)” value amounted to 0. In [13], the “Hepatotoxicity (comment)” value was “REACTIVATION_HVB/HVC”. For the same compound, in [14], the “Hepatotoxicity (granulomatous hepatitis)” value is on record as 0. Further, the “Hepatotoxicity (time to onset)” value in [15] is listed as 6 days - 5 years. Further, in [17], the “Hepatotoxicity (steatosis)” value is 25. The “Hepatotoxicity (cirrhosis)” value in [18] is reported as 0.
Turning to `CCC[N+]12[C@H](O)[C@@H](CC)[C@@H]3C[C@H]1[C@@H]1N(C)c4ccccc4[C@]14C[C@H]2C3[C@H]4O` (stereo partly specified), the “Hepatotoxicity (cytolytic)” value in [1] is given as 3. Also, the “Hepatotoxicity (moderate)” value in data set [2] came to 0%; in data set [12], 0. For the same compound, the “Hepatotoxicity (mechanism)” value in data set [3] was “Allergic”. The “Hepatotoxicity (association with vascular disease)” value in data set [4] amounted to 0. Also, the “Hepatotoxicity (malignant tumour)” value in data set [5] was 0. Also, the “Hepatotoxicity (acute)” value in [6] was 15; in data set [16], 0%. Further, in [7], the “Hepatotoxicity (severe hepatitis)” value was found to be 0. Further, the “Hepatotoxicity (chronic liver disease)” value in [8] turned out to be 2. The “Hepatotoxicity (choleostasis)” value in data set [9] is recorded as 14. Moreover, the “Hepatotoxicity (successful reintroduction)” value in [10] is recorded as “yes”. For the same compound, in data set [11], the “Hepatotoxicity (benign tumour)” value was found to be 0. Further, in data set [13], the “Hepatotoxicity (comment)” value is on record as “RC/QUINIDINE CHOLESTASE_PROLONGEE CHOLANGITE”. Also, the “Hepatotoxicity (granulomatous hepatitis)” value in data set [14] is on record as 2. Further, the “Hepatotoxicity (time to onset)” value in data set [15] was found to be 3 days - 4 months. Besides, the “Hepatotoxicity (steatosis)” value in data set [17] is recorded as 0. Besides, the “Hepatotoxicity (cirrhosis)” value in data set [18] was determined as 0.

Values taken from ChEMBL document CHEMBL3137667, “[Drug-induced liver injury; fourteenth updated edition of the bibliographic database of liver injuries and related drugs]” (Gastroenterol Clin Biol, 2004).
